Reference: patent US20250270191A1, “QUINOLONE BCL6 BIFUNCTIONAL DEGRADERS” (Treeline Biosciences, Inc., priority 2022, published 2025)

biological target: T1, Human BCL6 protein (N-terminal HiBiT tagged BCL6 in HT1080 cells) (Homo sapiens, UniProt P41182+Q96SW2); test: HiBiT based BCL6 degradation assay; type: cell-based; conditions: HT1080 cells expressing N-terminal HiBiT tagged BCL6; 5 hours incubation; BCL6 degradation normalized with DMSO control
T1 construct: Human BCL6 protein coding open reading frame; expressed in transfected cells; host or cells: HT1080 (ATCC CCL-121), stably transduced with lentivirus pLV-UBC-N-HiBiT-BCL6-PGK-puro
Method in brief: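 HT1080 cells stably expressing N-terminal HiBiT-BCL6 were treated with compound dilution series for 5 h at 37° C. in RPMI 1640 with 10% FBS. HiBiT lytic luminescence read after 15 min; degradation normalized to DMSO, with curves fitted by four-parameter logistic model.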

Ymin (5 hr)	SMILES
++++ (Ymin ≤ 25%)	CNC(=O)COc1cc2cc(Nc3nc(N4CCC(CN5CCN(c6ccc7c(C8CCC(=O)NC8=O)nn(C)c7c6)CC5)CC4)ncc3Cl)ccc2n(C)c1=O (stereo not shown) [Compound 334, 2-((6-((5-chloro-2-(4-((4-(3-(2,6-dioxopiperidin-3-yl)-1-methyl-1H-indazol-6-yl)piperazin-1-yl)methyl)piperidin-1-yl)pyrimidin-4-yl)amino)-1-methyl-2-oxo-1,2-dihydroquinolin-3-yl)oxy)-N-methylacetamide]
++ (50% < Ymin ≤ 70%)	CNC(=O)COc1cc2cc(Nc3nc(N4CCCC5(CCCN(c6ccc7c(C8CCC(=O)NC8=O)nn(C)c7c6)C5)C4)ncc3Cl)ccc2n(C)c1=O (stereo not shown) [Compound 335, 2-((6-((5-chloro-2-(8-(3-(2,6-dioxopiperidin-3-yl)-1-methyl-1H-indazol-6-yl)-2,8-diazaspiro[5.5]undecan-2-yl)pyrimidin-4-yl)amino)-1-methyl-2-oxo-1,2-dihydroquinolin-3-yl)oxy)-N-methylacetamide]
++++ (Ymin ≤ 25%)	CNC(=O)COc1cc2cc(Nc3nc(N4C[C@@H](C)N(CC5CCN(c6cccc7c(C8CCC(=O)NC8=O)nn(C)c67)CC5)[C@@H](C)C4)ncc3Cl)ccc2n(C)c1=O (stereo partly drawn) [Compound 336a, 2-((6-((5-chloro-2-((3S,5R)-4-((1-(3-(2,6-dioxopiperidin-3-yl)-1-methyl-1H-indazol-7-yl)piperidin-4-yl)methyl)-3,5-dimethylpiperazin-1-yl)pyrimidin-4-yl)amino)-1-methyl-2-oxo-1,2-dihydroquinolin-3-yl)oxy)-N-methylacetamide]
++++ (Ymin ≤ 25%)	CNC(=O)COc1cc2cc(Nc3nc(N4CCN(C(C)(C)C5CCN(c6cccc7c(C8CCC(=O)NC8=O)nn(C)c67)CC5)CC4)ncc3Cl)ccc2n(C)c1=O (stereo not shown) [Compound 337, 2-((6-((5-chloro-2-(4-(2-(1-(3-(2,6-dioxopiperidin-3-yl)-1-methyl-1H-indazol-7-yl)piperidin-4-yl)propan-2-yl)piperazin-1-yl)pyrimidin-4-yl)amino)-1-methyl-2-oxo-1,2-dihydroquinolin-3-yl)oxy)-N-methylacetamide]
++ (50% < Ymin ≤ 70%)	CNC(=O)COc1cc2cc(Nc3nc(N4CC5CCC(Nc6ccc7c(C8CCC(=O)NC8=O)nn(C)c7c6)CC5C4)ncc3Cl)ccc2n(C)c1=O (stereo not shown) [Compound 338, 2-((6-((5-chloro-2-(5-((3-(2,6-dioxopiperidin-3-yl)-1-methyl-1H-indazol-6-yl)amino)octahydro-2H-isoindol-2-yl)pyrimidin-4-yl)amino)-1-methyl-2-oxo-1,2-dihydroquinolin-3-yl)oxy)-N-methylacetamide]
++ (50% < Ymin ≤ 70%)	CNC(=O)COc1cc2cc(Nc3nc(N4CC5CCC(Nc6cccc7c(C8CCC(=O)NC8=O)nn(C)c67)CC5C4)ncc3Cl)ccc2n(C)c1=O (stereo not shown) [Compound 339, 2-((6-((5-chloro-2-(5-((3-(2,6-dioxopiperidin-3-yl)-1-methyl-1H-indazol-7-yl)amino)octahydro-2H-isoindol-2-yl)pyrimidin-4-yl)amino)-1-methyl-2-oxo-1,2-dihydroquinolin-3-yl)oxy)-N-methylacetamide]
+++ (25% < Ymin ≤ 50%)	CNC(=O)COc1cc2cc(Nc3nc(N4CCN(C(C)(C)C5CCN(c6ccc7c(C8CCC(=O)NC8=O)nn(C)c7c6)CC5)CC4)ncc3Cl)ccc2n(C)c1=O (stereo not shown) [Compound 340, 2-((6-((5-chloro-2-(4-(2-(1-(3-(2,6-dioxopiperidin-3-yl)-1-methyl-1H-indazol-6-yl)piperidin-4-yl)propan-2-yl)piperazin-1-yl)pyrimidin-4-yl)amino)-1-methyl-2-oxo-1,2-dihydroquinolin-3-yl)oxy)-N-methylacetamide]
